Measured values taken from article PMC3325759 (Journal of Natural Products, 2011).

Legend:
[1] = system: H-460 human lung cell lines; test: Cytotoxicity to H-460 cells; assay type: cell-based; details: all tested concentrations (up to 20 µg/mL)
[2] = molecular target: human recombinant CB1 receptor (Homo sapiens, UniProt P21554); test: biochemical; assay type: binding
Chain of human recombinant CB1 receptor (P21554 whole entry): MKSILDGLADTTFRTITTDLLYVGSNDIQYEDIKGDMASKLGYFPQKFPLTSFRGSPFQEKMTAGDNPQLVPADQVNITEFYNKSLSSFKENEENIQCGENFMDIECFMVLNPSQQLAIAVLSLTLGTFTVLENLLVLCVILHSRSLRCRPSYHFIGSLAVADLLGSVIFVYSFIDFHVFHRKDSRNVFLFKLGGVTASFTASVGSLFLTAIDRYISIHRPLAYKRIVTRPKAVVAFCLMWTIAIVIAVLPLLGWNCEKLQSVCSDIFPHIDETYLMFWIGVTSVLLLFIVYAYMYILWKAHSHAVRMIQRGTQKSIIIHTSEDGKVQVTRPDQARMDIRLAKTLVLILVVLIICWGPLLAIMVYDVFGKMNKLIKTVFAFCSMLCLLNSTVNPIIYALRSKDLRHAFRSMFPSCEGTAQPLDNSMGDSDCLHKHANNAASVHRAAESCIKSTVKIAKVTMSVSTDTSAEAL

Row | SMILES | cytotoxicity (in words) [1] | affinity for the CB1 cannabinoid receptor (in words) ([2]; radioligand binding assay) | EC50 [2] [nM]
1 | C=C(CCCCCCCCCCCCC)CCCC(=O)O/C=C\COC(C)=O [compound 4, propenediester] | inactive | completely inactive | –
2 | CCCCCCCCCCCCC/C=C/CCC(=O)N(C)[C@H](CO)COC [compound 3, serinolamide A] | – | – | 2300
